Results on 31 compounds are retold here after patent EP4438597A1, “2-STYRYLBENZOTHIAZOLE DERIVATIVES AS A-SYNUCLEIN BINDING COMPOUNDS” (Eberhard Karls Universität Tübingen Medizinische Fakultät, priority 2023, dated 2024).

The target in experiment [1] is T1, αSYN fibrils (Homo sapiens, UniProt P37840). As to the kind of experiment: [3H]PiB competition binding assay on αSYN fibrils. The procedure: (§1) Concentrations of αSYN and Aβ1-42 fibrils were as described above.
Plates were incubated on a shaker (MaxQ 6000, Thermo Fisher Scientific Inc., Marietta, OH, USA) at 50 rpm for 2 hours at 37°C, covered by removable sealing tapes (PerkinElmer, Waltham, MA, USA). […] Data points were fitted using non-linear regression analysis in GraphPad Prism (GraphPad Software, Inc., Version 8.4.0, La Jolla, USA).

Experiment [2] addresses T1, αSYN fibrils. Briefly: [3H]MODAG-001 competition binding assay on αSYN fibrils. To be noted: for Ki: competition with [3H]MODAG-001, αSYN fibrils. How it is done:
as §1
(§2) Plates were incubated on a shaker (MaxQ 6000, Thermo Fisher Scientific Inc., Marietta, OH, USA) at 50 rpm for 2 hours at 37°C, covered by removable sealing tapes (PerkinElmer, Waltham, MA, USA). Vacuum filtration and read-out were performed as disclosed in Kuebler, L. et al., [11C]MODAG-001-towards a PET tracer targeting α-synuclein aggregates; European Journal of Nuclear Medicine and Molecular Imaging 2020, 48, 1759-1772. […] Data points were fitted using non-linear regression analysis in GraphPad Prism (GraphPad Software, Inc., Version 8.4.0, La Jolla, USA).

For experiment [3], the target named is T2, Aβ1-42 fibrils (Homo sapiens, UniProt P05067).
T2 construct: Synthetic lyophilized human Aβ1-42 peptide; purchased EMC Microcollections, Tuebingen, Germany; host or cells: chemical synthesis
Briefly: [3H]PiB competition binding assay on Aβ fibrils. The following applies: for binding to Aβ fibrils (competition with [3H]PiB): [3H]PiB competition on Aβ fibrils.
Description: The method for Aβ1-42 fibrils generation was adapted from Bagchi, D. P. et al., Binding of the radioligand SIL23 to alpha-synuclein fibrils in Parkinson disease brain tissue establishes feasibility and screening approaches for developing a Parkinson disease imaging agent; PLoS One 2013, 8 (2), e55031, and described in Kuebler, L. et al., [11C]MODAG-001-towards a PET tracer targeting α-synuclein aggregates; European Journal of Nuclear Medicine and Molecular Imaging 2020, 48, 1759-1772. Synthetic lyophilized human Aβ1-42 peptide (5 mg) with >90 % purity (EMC Microcollections, Tuebingen, Germany) was dissolved in DMSO (221.5 µL), followed by the addition of deionized water (4.1 mL) and 1 M Tris-HCl (111 µL, pH 7.6) to reach a final monomeric concentration of 250 µM. Aggregation was induced by incubation in Eppendorf Thermomixer at 37°C with shaking at 800 rpm for 72 hours. The resulted fibrils were sonicated for 3 min in a water bath (Elmasonic S 60 H, Elma Schmidbauer GmbH, Singen, Germany). The final products were aliquoted, frozen on dry ice, and stored at -80°C until use.
as §1, §2

The mark [4] stands for this setting: [3H]PiB competition, αSYN fibrils, mean Ki ± SEM, two data points (9a, 14a, 15a, 17a, 18a, 43, 44, MFSB three; 12a single), read-out: Ki.

T2 sequence (P05067 672-713 limits assumed): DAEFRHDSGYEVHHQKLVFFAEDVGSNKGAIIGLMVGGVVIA

As a reminder, the Ki is a dissociation constant, usually derived from enzyme kinetics or from competition with a known ligand. For `Cc1cccc2c1sc(C=Cc1ccc(N3CCCCC3)cc1)[n+]2C` [10b, 3,7-dimethyl-2-(4-(piperidin-1-yl)styryl)benzo[d]thiazol-3-ium iodide], the Ki in experiment [1] (read-out: Ki) amounted to 148 ± 83.7 nM.

As to `COc1ccc2nc(C=Cc3ccc(N4CCCCC4)cc3)sc2c1` [8a, 6-methoxy-2-(4-(piperidin-1-yl)styryl)benzo[d]thiazole], the Ki in experiment [1] (read-out: Ki) is 106 ± 3.6 nM.

For the compound `C(C=Cc1nc2ccccc2s1)=Cc1ccc(N2CCCCC2)cc1` [14a, 2-(4-(4-(piperidin-1-yl)phenyl)buta-1,3-dien-1-yl)benzo[d]thiazole], the Ki in experiment [1] (setting [4]) stood at 81.9 ± 15.6 nM.

For the compound `COc1cccc2c1sc(C=Cc1ccc(N3CCCCC3)cc1)[n+]2C` [11b, 7-methoxy-3-methyl-2-(4-(piperidin-1-yl)styryl)benzo[d]thiazol-3-ium iodide], in experiment [1] (read-out: Ki), the inhibition constant (Ki) was found to be 206 ± 28.2 nM.

As for `C[n+]1c(C=CC=Cc2ccc(N3CCCCC3)cc2)sc2ccccc21` [14b, 3-methyl-2-(4-(4-(piperidin-1-yl)phenyl)buta-1,3-dien-1-yl)benzo[d]thiazol-3-ium iodide], the Ki in experiment [1] (read-out: Ki) worked out at 19.9 ± 3.1 nM.

Take `Cc1ccc2c(c1)sc(C=Cc1ccc(N3CCCCC3)cc1)[n+]2C` [7b, 3,6-dimethyl-2-(4-(piperidin-1-yl)styryl)benzo[d]thiazol-3-ium iodide]: in experiment [1] (read-out: Ki), the inhibition constant Ki was found to be 20.3 ± 3.5 nM.

Turning to `C[n+]1c(C=Cc2ccc(N3CCCC3)cc2)sc2ccccc21` [17b, 3-methyl-2-(4-(pyrrolidin-1-yl)styryl)benzo[d]thiazol-3-ium iodide], the Ki in experiment [1] (read-out: Ki) amounted to 102 ± 43 nM.

For `COc1ccc2sc(C=Cc3ccc(N4CCCCC4)cc3)[n+](C)c2c1` [5b, 5-methoxy-3-methyl-2-(4-(piperidin-1-yl)styryl)benzo[d]thiazol-3-ium iodide], the Ki in experiment [1] (read-out: Ki) was determined as 95.2 ± 67.7 nM.

With `Cc1ccc2sc(C=Cc3ccc(N4CCCCC4)cc3)[n+](C)c2c1` [4b, 3,5-dimethyl-2-(4-(piperidin-1-yl)styryl)benzo[d]thiazol-3-ium iodide], the Ki in experiment [1] (read-out: Ki) turned out to be 72.2 ± 12.4 nM.

On to `Cc1cccc2sc(C=Cc3ccc(N4CCCCC4)cc3)nc12` [1a, 4-methyl-2-(4-(piperidin-1-yl)styryl)benzo[d]thiazole], for which, in experiment [1] (read-out: Ki), the Ki was determined as 135 ± 63.5 nM.

With `Fc1ccc2nc(C=Cc3ccc(N4CCOCC4)cc3)sc2c1` [compound 45, 4-(4-(2-(6-fluorobenzo[d]thiazol-2-yl)vinyl)phenyl)morpholine], the “fold lower Ki than PFSB” value in experiment [2] ([3H]MODAG-001 competition, MFSB vs PFSB) was 4.6 fold. In addition, the Ki is 30.8 ± 10.5 nM in experiment [2] and 10.3 ± 4.7 nM in experiment [1] (setting [4]). Further, the “affinity improved by factor compared to PFSB” value in experiment [1] ([3H]PiB competition, αSYN fibrils, MFSB vs PFSB) stood at 2.5. In addition, in experiment [3] (from [3H]PiB competition on αSYN and Aβ fibrils), the “selectivity towards αSYN over Aβ” value is on record as “remained unchanged”.

`FC1CCN(c2ccc(C=Cc3nc4ccccc4s3)cc2)CC1` [18a, 2-(4-(4-fluoropiperidin-1-yl)styryl)benzo[d]thiazole]: in experiment [1] (setting [4]), the inhibition constant Ki worked out at 99.8 ± 32.6 nM.

For the compound `C(=Cc1nc2ccccc2s1)c1ccc(N2CCCC2)cc1` [17a, 2-(4-(pyrrolidin-1-yl)styryl)benzo[d]thiazole], the Ki in experiment [1] (setting [4]) was 73.4 ± 19 nM.

Take `Fc1ccc2nc(C=Cc3ccc(N4CCCCC4)cc3)sc2c1` (mixture of isomers) [9a, 6-fluoro-2-(4-(piperidin-1-yl)styryl)benzo[d]thiazole]: the inhibition constant (Ki) amounted to 142 ± 16.9 nM in experiment [2] and 25.4 ± 2.3 nM in experiment [1] (setting [4]).

Regarding `COc1ccc2sc(C=Cc3ccc(N4CCCCC4)cc3)nc2c1` [5a, 5-methoxy-2-(4-(piperidin-1-yl)styryl)benzo[d]thiazole], the inhibition constant Ki in experiment [1] (read-out: Ki) was 158 ± 29.7 nM.

With `C[n+]1c(C=Cc2ccc(N3CCCCC3)cc2)sc2ccc(F)cc21` [6b, 5-fluoro-3-methyl-2-(4-(piperidin-1-yl)styryl)benzo[d]thiazol-3-ium iodide], the Ki in experiment [1] (read-out: Ki) was 352 ± 83.5 nM.

In the case of `Cc1ccc2nc(C=Cc3ccc(N4CCCCC4)cc3)sc2c1` [7a, 6-methyl-2-(4-(piperidin-1-yl)styryl)benzo[d]thiazole], the Ki in experiment [1] (read-out: Ki) worked out at 224 ± 6.1 nM.

For `Fc1ccc2nc(C=CC=Cc3ccc(N4CCCCC4)cc3)sc2c1` [compound 43, 6-fluoro-2-(4-(4-(piperidin-1-yl)phenyl)buta-1,3-dien-1-yl)benzo[d]thiazole], the inhibition constant Ki in experiment [1] (setting [4]) was 214 ± 122 nM. Moreover, in experiment [3], the “binding to Aβ fibrils (competition with [3H]PiB)” value is “low”.

With `COc1cccc2sc(C=Cc3ccc(N4CCCCC4)cc3)[n+](C)c12` [2b, 4-methoxy-3-methyl-2-(4-(piperidin-1-yl)styryl)benzo[d]thiazol-3-ium iodide], the Ki in experiment [1] (read-out: Ki) came to 52.6 ± 18.3 nM.

Take `C(=Cc1nc2ccccc2s1)c1ccc(N2CCSCC2)cc1` [16a, 2-(4-thiomorpholinostyryl)benzo[d]thiazole]: the Ki in experiment [1] (read-out: Ki) is 139 ± 80.2 nM.

As for `Fc1ccc2nc(C=CC=Cc3ccc(N4CCCC4)cc3)sc2c1` [compound 44, 6-fluoro-2-(4-(4-(pyrrolidin-1-yl)phenyl)buta-1,3-dien-1-yl)benzo[d]thiazole], the Ki in experiment [1] (setting [4]) came out at 85 ± 41 nM. Moreover, the “binding to Aβ fibrils (competition with [3H]PiB)” value in experiment [3] is given as “low”.

As to `Fc1ccc2sc(C=Cc3ccc(N4CCCCC4)cc3)nc2c1` [6a, 5-fluoro-2-(4-(piperidin-1-yl)styryl)benzo[d]thiazole], the inhibitory constant (Ki) in experiment [1] (read-out: Ki) is 147 ± 22.3 nM.

On to `C(=Cc1nc2ccccc2s1)c1ccc(N2CCOCC2)cc1` [15a, 4-(4-(2-(benzo[d]thiazol-2-yl)vinyl)phenyl)morpholine], for which the inhibition constant (Ki) in experiment [1] (setting [4]) was 92 ± 30.3 nM.

Regarding `c1ccc2sc(-c3ccc(N4CCCCC4)cc3)nc2c1` [13a, 2-(4-(piperidin-1-yl)phenyl)benzo[d]thiazole], the Ki in experiment [1] (read-out: Ki) amounted to 73.3 ± 61.2 nM.

Regarding `C(=Cc1nc2ccccc2s1)c1ccc(N2CCCCC2)cc1` [compound 20, 2-(4-(piperidin-1-yl)styryl)benzo[d]thiazole], the Ki in experiment [1] (read-out: Ki) was 102 ± 68.5 nM.

`Cc1cccc2sc(/C=C/c3ccc(N4CCCCC4)cc3)[n+](C)c12` [1b, 3,4-dimethyl-2-(4-(piperidin-1-yl)styryl)benzo[d]thiazol-3-ium 4-nitrobenzenesulfonate] had a Ki in experiment [1] of 60 ± 23.9 nM.

Take `Fc1cccc2nc(C=Cc3ccc(N4CCCCC4)cc3)sc12` [12a, 7-fluoro-2-(4-(piperidin-1-yl)styryl)benzo[d]thiazole]: the Ki in experiment [1] (setting [4]) came to 283 nM.

Consider `Fc1cccc2sc(C=Cc3ccc(N4CCCCC4)cc3)nc12` [3a, 4-fluoro-2-(4-(piperidin-1-yl)styryl)benzo[d]thiazole], for which the Ki in experiment [1] (read-out: Ki) came out at 149 ± 38 nM.

Turning to `COc1ccc2c(c1)sc(C=Cc1ccc(N3CCCCC3)cc1)[n+]2C` [8b, 6-methoxy-3-methyl-2-(4-(piperidin-1-yl)styryl)benzo[d]thiazol-3-ium iodide], the Ki in experiment [1] (read-out: Ki) is 14.7 ± 5.1 nM.

As to `Cc1ccc2sc(C=Cc3ccc(N4CCCCC4)cc3)nc2c1` [4a, 5-methyl-2-(4-(piperidin-1-yl)styryl)benzo[d]thiazole], the Ki in experiment [1] (read-out: Ki) is 161 ± 72.7 nM.

Consider `C[n+]1c(C=Cc2ccc(N3CCCCC3)cc2)sc2cc(F)ccc21` [9b, 6-fluoro-3-methyl-2-(4-(piperidin-1-yl)styryl)benzo[d]thiazol-3-ium iodide], for which the Ki in experiment [1] (read-out: Ki) came to 189 ± 146 nM.
